Legend:
[1] = biological target: CDK2/CyclinA (Homo sapiens, UniProt P24941); assay: Activated CDK2/CyclinA kinase inhibitory activity assay; assay type: biochemical
Procedure: (§1) The reaction is allowed to proceed for 2 to 4 hours before being stopped with an excess of ortho-phosphoric acid (5 μl at 2%). γ^33P-ATP which remains unincorporated into the histone H1 is separated from phosphorylated histone H1 on a Millipore MAPH filter plate. The wells of the MAPH plate are wetted with 0.5% orthophosphoric acid, and then the results of the reaction are filtered with a Millipore vacuum filtration unit through the wells. Following filtration, the residue is washed twice with 200 μl of 0.5% orthophosphoric acid. Once the filters have dried, 20 μl of Microscint 20 scintillant is added, and then counted on a Packard Topcount for 30 seconds.

[2] = biological target: T1, CDK1/CyclinB (Homo sapiens, UniProt P06493); assay: Activated CDK1/CyclinB kinase inhibitory activity assay; assay type: biochemical
T1 construct: purchased Upstate Discovery
Procedure: as §1
CDK1/CyclinB assay is identical to the CDK2/CyclinA above except that CDK1/CyclinB (Upstate Discovery) is used and the enzyme is diluted to 6.25 nM.

[3] = Salt stability at 40° C. 75% RH followed by XRPD; assay type: physicochemical; settings: 40° C. and 75% RH over the period of 1-2 month
Procedure: Approximately 15 mg of samples for the stability study were gently ground by marble mortar and transferred to a Petri dish in a thin layer. Samples were then placed in sealed containers containing saturated NaCl solution with an excess of undissolved NaCl. […] Samples were analysed by X-ray powder diffraction (XRPD) in regular intervals. Samples for XRPD data collection were loaded into crystallographic capillary (from Hampton Research, made of Quartz, diameter=0.4 mm). […] 2D Images were collected while spinning φ axis with a detector to crystal distance of 250 mm. Data collection was controlled by CrystalClear software and 2D images were converted to 1D plot (2θ vs. Intensity) by Datasqueeze (intensity averaged over the azimuthal angle 0<χ<360° for 2θ range 3-30° in 0.01° steps).

T1 sequence (P06493 whole entry): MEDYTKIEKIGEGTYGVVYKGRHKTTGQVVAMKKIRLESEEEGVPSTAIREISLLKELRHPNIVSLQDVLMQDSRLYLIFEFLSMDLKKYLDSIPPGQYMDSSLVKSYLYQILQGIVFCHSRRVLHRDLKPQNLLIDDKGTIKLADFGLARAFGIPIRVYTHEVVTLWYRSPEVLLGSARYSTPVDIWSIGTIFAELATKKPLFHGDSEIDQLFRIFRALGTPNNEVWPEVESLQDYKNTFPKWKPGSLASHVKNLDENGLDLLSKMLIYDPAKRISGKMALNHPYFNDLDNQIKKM
T1 sequence (P14635 whole entry partner): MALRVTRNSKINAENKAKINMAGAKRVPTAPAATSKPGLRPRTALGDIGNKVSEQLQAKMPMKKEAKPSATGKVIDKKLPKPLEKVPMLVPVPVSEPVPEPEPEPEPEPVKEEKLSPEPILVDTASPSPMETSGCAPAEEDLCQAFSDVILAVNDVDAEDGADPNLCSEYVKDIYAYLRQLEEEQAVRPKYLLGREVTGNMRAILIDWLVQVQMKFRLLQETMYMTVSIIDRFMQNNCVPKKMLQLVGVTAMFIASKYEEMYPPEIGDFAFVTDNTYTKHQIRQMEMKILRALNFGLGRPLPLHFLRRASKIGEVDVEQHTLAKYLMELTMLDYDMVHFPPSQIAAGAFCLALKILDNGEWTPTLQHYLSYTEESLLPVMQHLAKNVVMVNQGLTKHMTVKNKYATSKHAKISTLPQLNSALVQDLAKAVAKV

IC50 [1]	IC50 [2]	change of XRPD pattern on storage [3]	Structure (SMILES)
		do not change	O.O.O=C(Nc1c[nH]nc1-c1nc2cc(CN3CCOCC3)ccc2[nH]1)NC1CC1 [dihydrate free base (FB2), 1-cyclopropyl-3-[3-(5-morpholin-4-ylmethyl-1H-benzoimidazol-2-yl)-1H-pyrazol-4-yl]-urea free base dihydrate]
	< 10 µM		O=C(Nc1ccccc1F)Nc1c[nH]nc1-c1nc2cc(CN3CCOCC3)ccc2[nH]1 [Example 49]
< 1 µM	< 1 µM		O=C(Nc1cc(F)ccc1F)Nc1c[nH]nc1-c1nc2cc(CN3CCOCC3)ccc2[nH]1 [Example 47]
< 10 µM			O=C(Nc1ccc(F)cc1)Nc1c[nH]nc1-c1nc2cc(CN3CCOCC3)ccc2[nH]1 [Example 44, 1-(4-fluorophenyl)-N-[3-(5-morpholin-4-ylmethyl-1H-benzimidazol-2-yl)-1H-pyrazol-4-yl]-urea]
	< 50 µM		CN(C(=O)Nc1c[nH]nc1-c1nc2cc(CN3CCOCC3)ccc2[nH]1)c1ccccc1F [Example 43]
	< 10 µM		O=C(NCc1ccco1)Nc1c[nH]nc1-c1nc2cc(CN3CCOCC3)ccc2[nH]1 [Example 52]
	< 10 µM		COc1ccc(Cl)cc1NC(=O)Nc1c[nH]nc1-c1nc2cc(CN3CCOCC3)ccc2[nH]1 [Example 56]
< 10 µM	< 10 µM		O=C(Nc1c[nH]nc1-c1nc2cc(CN3CCOCC3)ccc2[nH]1)NC1CCCCC1 [Example 51]
< 10 µM	< 10 µM		CC(C)(C)NC(=O)Nc1c[nH]nc1-c1nc2cc(CN3CCOCC3)ccc2[nH]1 [Example 45]
	< 1 µM		CN(C(=O)Nc1c[nH]nc1-c1nc2cc(CN3CCOCC3)ccc2[nH]1)c1ccc(F)cc1F [Example 42]
< 10 µM	< 10 µM		O=C(Nc1cc(F)cc(F)c1)Nc1c[nH]nc1-c1nc2cc(CN3CCOCC3)ccc2[nH]1 [Example 53]
< 1 µM	< 1 µM		O=C(Nc1c[nH]nc1-c1nc2cc(CN3CCOCC3)ccc2[nH]1)Nc1c(F)cc(F)cc1F [Example 54]
	< 10 µM		O=C(Nc1cccc(F)c1)Nc1c[nH]nc1-c1nc2cc(CN3CCOCC3)ccc2[nH]1 [Example 50]
< 1 µM	< 10 µM		O=C(Nc1ccc(F)cc1F)Nc1c[nH]nc1-c1nc2cc(CN3CCOCC3)ccc2[nH]1 [Example 46]

Further lines, the molecule ahead of its results:

Structure (SMILES)	IC50 [1]	IC50 [2]	change of XRPD pattern on storage [3]
COc1cc2nc(-c3n[nH]cc3NC(=O)c3ccoc3CN(C)C)[nH]c2cc1OC [Example 20]	< 1 µM	< 10 µM	
COc1cc2nc(-c3n[nH]cc3NC(=O)C3CN(C(C)C)CCO3)[nH]c2cc1OC (racemic) [Example 16, N-[3-(5,6-dimethoxy-1H-benzimidazol-2-yl)-1H-pyrazol-4-yl]-rac-4 isopropyl-2-morpholine carboxamide]		< 10 µM	
O=C(NCC1CC1)Nc1c[nH]nc1-c1nc2cc(CN3CCOCC3)ccc2[nH]1 [Example 34]		< 10 µM	
O=C(Nc1c[nH]nc1-c1nc2cc(CN3CCOCC3)ccc2[nH]1)N1Cc2ccccc2C1 [Example 28]		< 10 µM	
O=C(Nc1c[nH]nc1-c1nc2cc(CN3CCOCC3)ccc2[nH]1)C1CCCO1 (stereo not drawn) [Example 11]	< 1 µM	< 1 µM	
Cc1nc2sccn2c1C(=O)Nc1c[nH]nc1-c1nc2cc(CN3CCOCC3)ccc2[nH]1 [Example 2, 6-methyl-imadazol[2,1-b]thiazole-5-carboxylic acid[3-(5-morpholin-4-ylmethyl-1H-benzoimidazol-2-yl)-1H-pyrazol-4-yl]-amide]		< 50 µM	
CC(C)(CO)C(=O)Nc1c[nH]nc1-c1nc2cc(CN3CCOCC3)ccc2[nH]1 [Example 8]		< 10 µM	
O=C(NCc1c(F)cccc1F)Nc1c[nH]nc1-c1nc2cc(CN3CCOCC3)ccc2[nH]1 [Example 23]		< 50 µM	
N#CC(C(=O)Nc1c[nH]nc1-c1nc2cc(CN3CCOCC3)ccc2[nH]1)C1CC1 (stereo not drawn) [Example 4, 2-Cyano-2-cyclopropyl-N-[3-(5-morpholin-4-ylmethyl-1H-benzoimidazol-2-yl)-1H-pyrazol-4-yl]-acetamide]		< 1 µM	
CN(C)NC(=O)Nc1c[nH]nc1-c1nc2cc(CN3CCOCC3)ccc2[nH]1 [Example 31]	< 1 µM	< 10 µM	
N#CCC(=O)Nc1c[nH]nc1-c1nc2cc(CN3CCOCC3)ccc2[nH]1 [Example 3, 2-cyano-N-[3-(5-morpholin-4-ylmethyl-1H-benzoimidaxol-2-yl)-1H-pyrazol-4-yl]-acetamide]		< 10 µM	
COc1cc2nc(-c3n[nH]cc3NC(=O)C3CCCN(C)C3)[nH]c2cc1OC (racemic) [Example 17, N-[3-(5,6-dimethoxy-H-benzimidazol-2-yl)-1H-pyrazol-4-yl]-rac-1-methyl-piperidine 3-carboxamide]		< 10 µM	
O=C(Nc1c[nH]nc1-c1nc2cc(CN3CCOCC3)ccc2[nH]1)[C@@H]1CCCO1 [Example 13]		< 1 µM	
CN(C(=O)Nc1c[nH]nc1-c1nc2cc(CN3CCOCC3)ccc2[nH]1)c1cccc(F)c1 [Example 41]		< 10 µM	
O=C(Nc1c[nH]nc1-c1nc2cc(CN3CCOCC3)ccc2[nH]1)NC1CCOCC1 [Example 27]		< 50 µM	
COc1cc2nc(-c3n[nH]cc3NC(=O)c3cc(Cl)cc(N4CCN(C)CC4)c3)[nH]c2cc1OC [Example 18, 3-chloro-N-(5,6-dimethoxy-1H-benzoimidazol-2-yl)-1H-pyrazol-4-yl-5-(4-methyl-piperazin-1-yl)-benzamide]	< 1 µM		
CN(C(=O)Nc1c[nH]nc1-c1nc2cc(CN3CCOCC3)ccc2[nH]1)c1ccc(F)cc1 [Example 37, 1-(4-fluorophenyl)-1-methyl-3-[3-(5-morpholin-4-ylmethyl-1H-benzimadazol-2-yl)-1H-pyrazol-4-yl]-urea]		< 50 µM	
O=C(CC1CC1)Nc1c[nH]nc1-c1nc2cc(CN3CCOCC3)ccc2[nH]1 [Example 10]	< 1 µM	< 1 µM	
COc1ccc(C#N)cc1C(=O)Nc1c[nH]nc1-c1nc2cc(CN3CCOCC3)ccc2[nH]1 [Example 1, 5-cyano-2-methoxy-N-[3-(5-morpholin-4-ylmethyl-1H-benzoimidazol-2-yl)-1H-pyrazol-4-yl]-benzamide]	< 1 µM	< 1 µM	
O=C(Nc1c[nH]nc1-c1nc2cc(CN3CCOCC3)ccc2[nH]1)C1CCOC1 (stereo not drawn) [Example 9]		< 10 µM	
O=C(Nc1c[nH]nc1-c1nc2cc(CN3CCOCC3)ccc2[nH]1)N1CCc2ccccc21 [Example 29]		< 10 µM	
O=C(Nc1c[nH]nc1-c1nc2cc(CN3CCOCC3)ccc2[nH]1)NN1CCCC1 [Example 30]	< 1 µM		
O=C(Nc1c[nH]nc1-c1nc2cc(CN3CCOCC3)ccc2[nH]1)NN1CCOCC1 [Example 32]	< 1 µM	< 10 µM	
CS(=O)(=O)CCNC(=O)Nc1c[nH]nc1-c1nc2cc(CN3CCOCC3)ccc2[nH]1 [Example 33]		< 50 µM	
COc1ccc(Cl)cc1C(=O)Nc1c[nH]nc1-c1nc2cc(CN3CCN(C)CC3)ccc2[nH]1 [Example 22, 5-chloro-2-methoxy-N-{3-[5-(4-methyl-piperazin-1-ylmethyl)-1H-benzoimidazol-2-yl]-1H-pyrazol-4-yl}-benzamide]	< 1 µM	< 1 µM	
O=C(NCC1CCOCC1)Nc1c[nH]nc1-c1nc2cc(CN3CCOCC3)ccc2[nH]1 [Example 26]		< 50 µM	
Cn1cccc(NC(=O)Nc2c[nH]nc2-c2nc3cc(CN4CCOCC4)ccc3[nH]2)c1=O [Example 39]		< 10 µM	

From US8110573B2, “Pyrazole compounds that modulate the activity of CDK, GSK and aurora kinases” (Astex Therapeutics Limited, priority 2004, dated 2012)
